Measured values reported in patent US20180326014A1, “PHARMACEUTICAL FORMULATIONS FOR THE TREATMENT OF DIABETES” (KALEYDE PHARMACEUTICALS AG, priority 2016, published 2018).
Like-named read-outs stand apart in the source and are kept apart here. Where a SMILES comes first, the peptide text is derived from it. [ ]: non-standard residue; d: D form. ξ: configuration not given here. ξαMeF = CC(N)(Cc1ccccc1)C(=O)O; Aib = CC(C)(N)C(=O)O

Legend:
[1] = tested on: SD-STZ rats (Sprague-Dawley rats rendered diabetic with streptozotocin); conditions: rat, in vivo
Protocol: (§1) The severity of the diabetic state was evaluated by daily monitoring of body weight, clinical signs and blood glucose levels.
(§2) The dose of STZ was prepared at the time of use by dissolving the compound in 0.05M citrate buffer, pH 4.5. For the STZ administration, the animals were placed in the dorsal position and the injection site was disinfected and buffered with an iodine-povidone solution; the i.p. injection was performed in the caudal abdominal cavity of the rats, using a sterile 25 g needle. The severity of the diabetes caused by administration of STZ was monitored daily, evaluating blood glucose levels with the One-Touch profile (LifeScan, Milpitas, Calif.), every day; urine glucose with Clinistix (Bayer Diagnostica, Basingstoke, United Kingdom), twice a week; insulin levels, twice a week, with an RIA Kit (BioRad, Milan, Italy).
(§3) 5) subcutaneously twice a day. The retinal functionality of the animals in each group was evaluated by ERG before euthanasia and removal of the retinas for quantitative histochemical analysis.
(§4) Retinal function was evaluated by ERG, as reported in detail in example 2.
(§5) The study design involved 5 groups of 10 rats, 5 male and 5 female. […]

[2] = tested on: DP BB rats (Diabetes-Prone BioBreeding rats); conditions: rat, in vivo, sc
Protocol: (§6) The efficacy of formulation 3, described in example 1, in the treatment of the retinal vascular alterations associated with diabetes, was evaluated using as experimental model DP BB rats (Diabetes-Prone BioBreeding rats, M&B Bomholtvej, Denmark), analyzing the retinal function of the treated animals by electroretinography (ERG) and the state of vascularization of the retina by quantitative immunohistochemical techniques.
(§7) 60 3-week old DP BB rats of both sexes (30 male and 30 female) were used. […] The animals were observed from the 3rd to 30th weeks of life, monitoring various parameters, including weight, blood glucose, urine glucose and blood insulin. In particular, the onset of diabetes was evaluated by measuring blood glucose with the One-Touch profile (LifeScan, Milpitas, Calif.) twice a week, and every day from the 13th week; urine glucose with Clinistix (Bayer Diagnostica, Basingstoke, United Kingdom), twice a week; insulin levels twice a week, with an RIA Kit (BioRad, Milan, Italy). […]
(§8) The retinal functionality of the animals in each group was evaluated by ERG before euthanasia and removal of the retinas for quantitative histochemical analysis.
(§9) Retinal functionality was evaluated by ERG, using a scotopic full-field ERG. […] The wave amplitude was measured at a fixed time of 8 ms from the stimulus, to minimise non-photoreceptor contamination. […]

[3] = tested on: DP BB rats (Diabetes-Prone BioBreeding rats); assay: CD31 immunohistochemistry and quantitative analysis of neovascular tuft formations in retinas of DP BB rats; format: in vivo, rat; conditions: daily s.c., peptide groups E, F, insulin alone group C, peptide+insulin group D
Protocol: The state of vascularization of the retina of the treated animals was studied on the whole retinas, using antibodies directed against CD31 (BD Biosciences, San Diego, Calif., USA), an important marker for the endothelial cells. The immunohistochemical tests on the retinas and quantitative analysis of the neovascular tuft formations, vascular and avascular areas, were conducted as reported in the literature (Exp Eye Res. 2013; 111:27-35; Invest Ophthalmol Vis Sci. 2012; 53:2181-2192; J Neurochem. 2011; 119:1317-1329; Invest Ophthalmol Vis Sci. 2006; 47:2125-2134). […]
The retinal vascularization images were acquired with an epifluorescence microscope (Eclipse E800; Nikon Corp., Amsterdam, Netherlands) using a digital camera converter (SD-Filc camera; Nikon Corp.). The electronic images were processed with image-processing software (Adobe Photoshop; Adobe Systems, Inc., Mountain View, Calif., USA) to allow quantitative analysis of the results. For each experimental condition, the quantitative data originated from 20 retinas of 10 different rats.
Table 3—Immunohistochemical tests on retinas and quantitative analysis of neovascular tuft formations. […] The electronic images were processed with image-processing software (Adobe Photoshop; Adobe Systems, Inc., Mountain View, Calif., USA) to allow quantitative analysis of the results. […]

[4] = tested on: SD-STZ rats (Sprague-Dawley rats rendered diabetic with streptozotocin); assay: Immunohistochemistry and quantitative analysis of neovascular tuft formations in retinas of SD-STZ rats; format: in vivo, rat; conditions: daily administration, peptide groups C and E, insulin alone group D
From the text: 5) subcutaneously twice a day.
For each experimental condition, the quantitative data originated from 20 retinas of 10 different rats.
Table 5—Immunohistochemical tests on retinas and quantitative analysis of neovascular tuft formations. The state of vascularization of the retina of the treated animals was studied as reported in example 2. For each experimental condition, the quantitative data originated from 20 retinas of 10 different rats. […] The areas of neovascularization are expressed as the ratio between the area of neovascularization present in the animals which are not yet diabetic (Group A≈0.1% of the retinal area) and that of the group. […] 5) subcutaneously twice a day.

[5] = tested on: SD-STZ rats (Sprague-Dawley rats rendered diabetic with streptozotocin); assay: Retinal function by ERG (SOPs) in rats rendered diabetic with streptozotocin; conditions: daily administration, peptide groups C and E, insulin alone printed as groups B and D
Protocol: as §1, §2, §3, §4, §5

[6] = tested on: DP BB rats (Diabetes-Prone BioBreeding rats); assay: Retinal function by scotopic full-field ERG (SOPs) in diabetes-prone BioBreeding rats; conditions: daily s.c., peptide groups E, F, insulin alone group C, peptide+insulin group D
Protocol: as §6, §7, §8, §9

**Q.** For `CC(=O)NC(C)(C)C(=O)N[C@@H](CCCNC(=N)N)C(=O)NC(C)(C)C(=O)N[C@@H](CCCNC(=N)N)C(=O)NC(C)(Cc1ccccc1)C(N)=O` (stereo partly drawn) [Ac-Aib-Arg-Aib-Arg-α(Me)Phe-NH2] (Ac-[Aib]R[Aib]R[ξαMeF]-NH2), which “effect on retinal vascular damage, in words (Table 4)” value [1] is on record?
**A.** prevent ab initio the formation of retinal vascular damage

**Q.** Which “effect on retinal vascular damage / eyesight, in words (Table 2)” value [2] does the source give for `CC(=O)N[C@@H](CCCNC(=N)N)C(=O)NC(C)(C)C(=O)N[C@@H](CCCNC(=N)N)C(=O)NC(C)(Cc1ccccc1)C(N)=O` (stereo partly drawn) [Ac-Arg-Aib-Arg-α(Me)Phe-NH2] (Ac-R[Aib]R[ξαMeF]-NH2) here?
**A.** prevent the formation of retinal vascular damage

**Q.** For insulin, which “effect on retinal vascular damage / NTA, in words (Table 3)” value [3] is on record?
**A.** causes a major increase in NTA

**Q.** What about the “effect on retinal vascular damage / NTA, in words (Table 5)” value [4] of the same compound?
**A.** leads to a major increase in NTA

**Q.** What about the “effect on retinal vascular damage, in words (Table 4)” value [5] of the same compound?
**A.** gives rise to major retinal vascular damage

**Q.** And the “effect on retinal vascular damage / eyesight, in words (Table 2)” value [6]?
**A.** causes major retinal vascular damage
